Experimental data reported in EP2961753B1, “STANNOUS FLUORESCENT PROBE” (priority 2014, dated 2015).

Assays:
[1] = Metal ion sensing: fluorescence titration with Sn^2+ and selectivity against various metal ions; type: physicochemical; conditions: for fluorescence at 580 nm / fluorescence of the solution / selectivity on sensing Sn^2+: metal ions that turn fluorescence on: 20 µM in ethanol-water (1: 1, v/v, PH 7.04); for fluorescence at 580 nm: addition of Sn^2+ (0-20 eq); for fluorescence at 580 nm / selectivity on sensing Sn^2+: metal ions that turn fluorescence on / fluorescence enhancement by other transition and heavy metal ions: excitation 560 nm; for fluorescence of the solution: no metal ion added; for selectivity on sensing Sn^2+: metal ions that turn fluorescence on: various metal ions; for fluorescence enhancement by other transition and heavy metal ions: 20 µM, K^+, Ag^+, Ca^2+, Mg^2+, Zn^2+, Pb^2+, Ni^2+, Mn^2+, Co^2+, Cd^2+, Hg^2+
Description: Solutions of the metal ions (10.0 mM) are prepared in deionized water. A stock solutions of Compounds R1 and R2 (0.2 mM) are each prepared in ethanol and then diluted to 20 µM with ethanol-water (1: 1, v/v, pH 7.04) for spectral measurement. For titration experiments, a 2.0 mL solution of Compounds R1 and R2 (20 µM) are filled in a respective quartz optical cell of 1 cm optical path length. Sn^2+ stock solution is added into the quartz optical cell gradually by micro-pipette. Spectral data is recorded at 5 min after addition. In selectivity experiments, the test samples are prepared by placing appropriate amounts of metal ion stock into 2.0 mL solution of R1, R2 (20 µM). For fluorescence measurements, excitation is provided at 560 nm, while emission is collected from 565 to 700 nm.

[2] = pH titration of probe fluorescence; type: physicochemical; conditions: 10 µM in PBS, fluorescence at 580 nm, excitation 560 nm, no Sn^2+
Description: pH titration of Compounds R1 and R2 is described. Stock solutions of Compounds R1 and R2 are respectively added to sodium phosphate buffers of various pH to a final concentration of 10 µM. The fluorescence emission spectra are recorded as a function of pH using λex at 560 nm. The titration curves are plotted by fluorescence emission intensities at 580 nm versus pH.
The impact of pH values on fluorescence is described. The pirolactam ring of the rhodamine derivatives will open in a certain pH range and indicates the fluorescence of rhodamine. It is therefore necessary to check the fluorescence properties of Compounds R1 and R2 in solutions with different pH values. […] Considering the application of Sn^2+ probe R1 and R2 intracellular or extracellular may be disturbed by the pH, the acid-base titration experiments are carried out by adjusting the pH with an aqueous solution of NaOH and HCl in Phosphate-Buffered Saline ("PBS") (Fig.2 a and b). […] Figures 2a and 2b show the dependence of fluorescence at 580 nm of comparative Compound R1 and inventive Compound R2 (10 µM) at different pH in PBS solution. Excitation was at 560 nm.

| Compound | fluorescence at 580 nm [1] | fluorescence of the solution [1] | selectivity on sensing Sn^2+: metal ions that turn fluorescence on [1] | fluorescence enhancement by other transition and heavy metal ions [1] | pH range for inducing fluorescence turning on [2] |
| --- | --- | --- | --- | --- | --- |
| Spiro[1H-isoindole-1,9'-[9H]xanthen]-3(2H)-one, 2-[2-[bis(2-hydroxyethyl)amino]amino]ethyl]-3',6'-bis(diethylamino) [Compound R1] | turned on and grown drastically | non-fluorescent | tuning on just in the presence of Sn^2+ and Cr^3+ | minimal enhancement | 2.5-6 |
| CCN(CC)c1ccc2c(c1)Oc1cc(N(CC)CC)ccc1C21c2ccccc2C(=O)N1NC(=O)OC(C)(C)C [Compound R2] | turned on and grown drastically | non-fluorescent | tuning on just in the presence of Sn^2+ and Cr^3+ | minimal enhancement | 2-4.5 |
